One compound from ChEMBL document CHEMBL3046277, “Inheritance mode and realized heritability of resistance to imidacloprid in the brown planthopper, Nilaparvata lugens (Stål) (Homoptera: Delphacidae)” (2009) can be followed below.

In brackets after ≈: the same amount, converted by molar mass.

Assay type in all cases: functional
For experiment [1], the system named is Nilaparvata lugens. Put plainly: Insecticidal activity against third instar nymph stage of imidacloprid-susceptible Nilaparvata lugens (brown planthopper) in rice stem assessed as mortality treated for 30 secs prior to nymph infestation measured at 96 hr post-drug treatment by rice-stem dipping method.
Experiment [2] concerns Nilaparvata lugens. Briefly: Resistance ratio of LC50 for Nilaparvata lugens (brown planthopper) F1' progeny to LC50 for imidacloprid-susceptible brown planthopper.
Experiment [3] deals with Nilaparvata lugens. Briefly: Resistance ratio of LC50 for Nilaparvata lugens (brown planthopper) F1 progeny to LC50 for imidacloprid-susceptible brown planthopper.
The test system of experiment [4] is Nilaparvata lugens. Briefly: Resistance ratio of LC50 for imidacloprid-resistance Nilaparvata lugens (brown planthopper) to LC50 for imidacloprid-susceptible brown planthopper.
Experiment [5] concerns Nilaparvata lugens. Briefly: Insecticidal activity against Nilaparvata lugens (brown planthopper) offspring obtained after 23 selected generations in rice stem assessed as mortality treated for 30 secs prior to nymph infestation measured at 96 hr post-drug treatment by rice-stem dipping method. The conditions noted are these: read-out: Log10LC50 (converted).
In experiment [6] the test system is Nilaparvata lugens. Put plainly: Insecticidal activity against Nilaparvata lugens (brown planthopper) parental generation in rice stem assessed as mortality treated for 30 secs prior to nymph infestation measured at 96 hr post-drug treatment by rice-stem dipping method. The settings on record: read-out: Log10LC50 (converted).
For experiment [7], the system named is Nilaparvata lugens. Briefly: Insecticidal activity against Nilaparvata lugens (brown planthopper) F1' progeny generated from reciprocal cross between male imidacloprid-susceptible strain and female imidaclporid-resistant strain in rice stem assessed as mortality treated for 30 secs prior to nymph infestation measured at 96 hr post-drug treatment by rice-stem dipping method.

In experiment [8] the test system is Nilaparvata lugens. Put plainly: Insecticidal activity against Nilaparvata lugens (brown planthopper) F1 progeny generated from reciprocal cross between female imidacloprid-susceptible strain and male imidaclporid-resistant strain in rice stem assessed as mortality treated for 30 secs prior to nymph infestation measured at 96 hr post-drug treatment by rice-stem dipping method.

The subject of experiment [9] is Nilaparvata lugens. Put plainly: Insecticidal activity against 23 generation selection pressure-induced imidacloprid-resistance Nilaparvata lugens (brown planthopper) at third instar nymph stage in rice stem assessed as mortality treated for 30 secs prior to nymph infestation measured at 96 hr post-drug treatment by rice-stem dipping method.

Regarding `O=[N+]([O-])/N=C1\NCCN1Cc1ccc(Cl)nc1` [IMIDACLOPRID], the LC50 in the experiment on Nilaparvata lugens [1] is 0.11 µg/mL (≈ 0.43 µM); in the experiment on Nilaparvata lugens [5] it was 9.43 mM; with Nilaparvata lugens [6], 62.5 mM; with Nilaparvata lugens [7] it was 30.2 µg/mL (≈ 118 µM); in the experiment on Nilaparvata lugens [8] it was 25.7 µg/mL (≈ 100 µM); in the experiment on Nilaparvata lugens [9], 106 µg/mL (≈ 415 µM). The RatioLC50 in the experiment on Nilaparvata lugens [2] turned out to be 274.45; in the experiment with Nilaparvata lugens [3], 233.45; with Nilaparvata lugens [4] it was 964.09.
